# Test system: DTH granuloma (DTH GRA) lesion in mBSA-sensitized mice
# Experiment: Delayed Type Hypersensitivity Granuloma Assay (DTH GRA) model for inflammation
# Type: in vivo, mouse
# Details: Mus musculus, po, 216 h, Table 1, Formula 1 compounds; 10 mg/kg PO; mouse DTH granuloma excised after nine days
# Experimental: This assay is described by Dunn, C.
# Briefly, mBSA-sensitized mice have a DTH granuloma (DTH GRA) lesion induced by subcutaneously implanting a mBSA-soaked filter which is excised after nine days. Compounds are administered to the mice to determine their effect on the lesions. The results are recorded as percent inhibition. […] Inhibition of 10 to 20% is considered to indicate anti-granuloma activity.
# Again, as in Table 1, the results are recorded as percent inhibition. […] Inhibition of 10 to 20% is considered to indicate anti-granuloma activity. […]
row,Compound,inhibition in vivo at 10 mg/kg [%]
1,"CCOP(=O)(OCC)C(CCc1cc(C)nc2c(C#N)c(C)nn12)P(=O)(OCC)OCC [a, (3-(3-Cyano-2,5-dimethyl-pyrazolo(1,5-a)pyrimidin-7-yl)propylidene)bisphosphonic acid tetraethyl ester]",46
2,"CCOP(=O)(OCC)C(CCc1cc(C)nc2c(C#N)c(-c3ccccc3)nn12)P(=O)(OCC)OCC [c, (3-(3-Cyano-5-methyl-2-phenyl-pyrazolo(1,5-a)pyrimidin-7-yl)-propylidene)bisphosphonic acid tetraethyl ester]",26
3,"CCOP(=O)(OCC)C(CCc1cc(C)nc2c(Br)c(C)nn12)P(=O)(OCC)OCC [d, (3-(3-Bromo-2,5-dimethyl-pyrazolo(1,5-a)pyrimidin-7-yl)-propylidene)bisphosphonic acid tetraethyl ester]",44
4,"CCOP(=O)(OCC)C(CCc1cc(C)nc2c([N+](=O)[O-])c(C)nn12)P(=O)(OCC)OCC [e, (3-(3-Nitro-2,5-dimethyl-pyrazolo(1,5-a)pyrimidin-7-yl)-propylidene)bisphosphonic acid tetraethyl ester]",41
5,"CCOP(=O)(OCC)C(CCc1cc(C)nc2cc(OC(=O)c3ccccc3)nn12)P(=O)(OCC)OCC [f, (3-(2-Benzoyloxy-5-methyl-pyrazolo(1,5-a)pyrimidin-7-yl)-propylidene)bisphosphonic acid tetraethyl ester]",41
6,"CCOP(=O)(OCC)C(CCc1cc(C)nc2cc(OCc3ccccc3)nn12)P(=O)(OCC)OCC [g, (3-(2-Benzyloxy-5-methyl-pyrazolo(1,5-a)pyrimidin-7-yl)-propylidene)bisphosphonic acid tetraethyl ester]",44
7,"CCCCCCOc1cc2nc(C)cc(CCC(P(=O)(OCC)OCC)P(=O)(OCC)OCC)n2n1 [h, (3-(2-Hexyloxy-5-methyl-pyrazolo(1,5-a)pyrimidin-7-yl)propylidene)-bisphosphonic acid tetraethyl ester]",49

# Same assay, conditions: Mus musculus, po, 216 h, Table 2, Formula 2 compounds; 10 mg/kg PO; mouse DTH granuloma excised after nine days
row,Compound,inhibition in vivo at 10 mg/kg [%]
1,"CCOP(=O)(OCC)C(CCc1nc(-c2ccc(Br)cc2)cc(=O)n1C)P(=O)(OCC)OCC [aa, (3-(2-(3-Methyl-4-oxo-6-(4-bromophenyl)-4(3H)-pyrimidinyl))-propylidine)bisphosphonic acid tetraethyl ester]",20
2,"CCOP(=O)(OCC)C(CCc1nc(-c2ccc(OC)cc2)cc(=O)n1C)P(=O)(OCC)OCC [bb, (3-(2-(3-Methyl-4-oxo-6-(4-methoxyphenyl)-4(3H)-pyrimidinyl))-propylidine)bisphosphonic acid tetraethyl ester]",22
3,"CCOP(=O)(OCC)C(CCc1nc(-c2ccc(N(C)C)cc2)cc(=O)n1C)P(=O)(OCC)OCC [cc, (3-(2-(3-Methyl-4-oxo-6-(4-dimethylaminophenyl)-4(3H)-pyrimidinyl))-propylidine)bisphosphonic acid tetraethyl ester]",63
4,"CCOc1ccc(-c2cc(=O)n(C)c(CCC(P(=O)(OCC)OCC)P(=O)(OCC)OCC)n2)cc1 [ee, (3-(2-(3-Methyl-4-oxo-6-(4-ethoxyphenyl)-4(3H)-pyrimidinyl))-propylidine)bisphosphonic acid tetraethyl ester]",46

# Same assay, conditions: Table 2, Formula 2 compounds; 10 mg/kg PO; mouse DTH granuloma excised after nine days
row,Compound,% Inhibition [%]
1,3-(7-Chloro-3-(2-fluoro-phenyl)-4(3H)-quinazolinone)-propylidine)bisphosphonic acid tetraethyl ester [qq],29
2,"3-(7-Chloro-3-(α,α,α-trifluoro-o-tolyl)-4(3H)-quinazolinone)-propylidine)bisphosphonic acid tetraethyl ester [pp]",24

# Same assay, conditions: Table 2, Formula 2 compounds; 10 mg/kg PO; mouse DTH granuloma excised after nine days; 10 mg/kg
row,Compound,% Inhibition [%]
1,"CCOP(=O)(OCC)C(CCc1nc(-c2ccccc2)cc(=O)n1Cc1ccccc1)P(=O)(OCC)OCC [gg, (3-(2-(3-Benzyl-4-oxo-6-phenyl-4(3H)-pyrimidinyl))-propylidine)bisphosphonic acid tetraethyl ester]",20
